The source of these data is US7091202B2, “4-arylspirocycloalkyl-2-aminopyrimidine carboxamide KCNQ potassium channel modulators” (Bristol-Myers Squibb Company, priority 2004, dated 2006).

This assay has as its target T1, hQ23 (HEK-293 cell line stably transfected with one of the members of the KCNQ family) (Homo sapiens, UniProt O43525+O43526).
T1 construct: expressed in transfected cells; host or cells: HEK-293, stably transfected
In words: Thallium flux assay for KCNQ channel blockers (FLIPR, BTC dye). Type of assay: cell-based. An outline of the steps:
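HEK-293 cells stably expressing a KCNQ member, loaded with BTC-AM (2 μM) in chloride-free buffer, pH 7.3; compounds added at 1% DMSO, then Tl2SO4 stimulus on FLIPR (488/540 nm, 60 s). Minimal active concentration set at ≥4 SD above negative control; IC50 from 10-point 1:3 series, single-site logistic fit versus the positive-control blocker.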

[1] abbreviates: hQ23 cells, thallium flux assay.
Setting [2] is: Table 2, thallium flux, HEK-293.
The mark [3] stands for this setting: Table 3, thallium flux, HEK-293.

The EC50 is the concentration that produces a half-maximal response.

T1 sequence (O43526 whole entry): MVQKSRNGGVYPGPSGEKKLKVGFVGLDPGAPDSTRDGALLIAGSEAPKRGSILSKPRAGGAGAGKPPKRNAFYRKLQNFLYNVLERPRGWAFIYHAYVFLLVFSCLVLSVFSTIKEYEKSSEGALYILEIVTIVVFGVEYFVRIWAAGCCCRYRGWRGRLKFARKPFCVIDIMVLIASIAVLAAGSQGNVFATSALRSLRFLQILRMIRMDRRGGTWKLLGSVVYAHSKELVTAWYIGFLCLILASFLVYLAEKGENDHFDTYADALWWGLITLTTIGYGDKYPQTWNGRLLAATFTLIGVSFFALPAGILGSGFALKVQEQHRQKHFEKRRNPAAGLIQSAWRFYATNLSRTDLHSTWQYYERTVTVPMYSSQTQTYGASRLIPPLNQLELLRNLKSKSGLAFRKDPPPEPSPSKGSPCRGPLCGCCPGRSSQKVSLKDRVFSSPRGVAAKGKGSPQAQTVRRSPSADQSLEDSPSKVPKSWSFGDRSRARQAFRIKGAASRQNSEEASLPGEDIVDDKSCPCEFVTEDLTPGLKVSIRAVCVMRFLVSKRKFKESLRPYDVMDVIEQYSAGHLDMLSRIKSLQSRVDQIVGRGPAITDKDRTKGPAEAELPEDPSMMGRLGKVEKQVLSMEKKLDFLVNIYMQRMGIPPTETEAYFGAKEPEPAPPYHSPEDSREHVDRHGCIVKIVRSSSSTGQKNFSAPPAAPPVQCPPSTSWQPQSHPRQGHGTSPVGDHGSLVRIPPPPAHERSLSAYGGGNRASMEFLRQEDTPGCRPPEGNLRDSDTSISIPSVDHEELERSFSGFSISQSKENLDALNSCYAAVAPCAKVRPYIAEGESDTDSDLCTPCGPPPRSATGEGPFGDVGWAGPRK
T1 sequence (O43525 whole entry): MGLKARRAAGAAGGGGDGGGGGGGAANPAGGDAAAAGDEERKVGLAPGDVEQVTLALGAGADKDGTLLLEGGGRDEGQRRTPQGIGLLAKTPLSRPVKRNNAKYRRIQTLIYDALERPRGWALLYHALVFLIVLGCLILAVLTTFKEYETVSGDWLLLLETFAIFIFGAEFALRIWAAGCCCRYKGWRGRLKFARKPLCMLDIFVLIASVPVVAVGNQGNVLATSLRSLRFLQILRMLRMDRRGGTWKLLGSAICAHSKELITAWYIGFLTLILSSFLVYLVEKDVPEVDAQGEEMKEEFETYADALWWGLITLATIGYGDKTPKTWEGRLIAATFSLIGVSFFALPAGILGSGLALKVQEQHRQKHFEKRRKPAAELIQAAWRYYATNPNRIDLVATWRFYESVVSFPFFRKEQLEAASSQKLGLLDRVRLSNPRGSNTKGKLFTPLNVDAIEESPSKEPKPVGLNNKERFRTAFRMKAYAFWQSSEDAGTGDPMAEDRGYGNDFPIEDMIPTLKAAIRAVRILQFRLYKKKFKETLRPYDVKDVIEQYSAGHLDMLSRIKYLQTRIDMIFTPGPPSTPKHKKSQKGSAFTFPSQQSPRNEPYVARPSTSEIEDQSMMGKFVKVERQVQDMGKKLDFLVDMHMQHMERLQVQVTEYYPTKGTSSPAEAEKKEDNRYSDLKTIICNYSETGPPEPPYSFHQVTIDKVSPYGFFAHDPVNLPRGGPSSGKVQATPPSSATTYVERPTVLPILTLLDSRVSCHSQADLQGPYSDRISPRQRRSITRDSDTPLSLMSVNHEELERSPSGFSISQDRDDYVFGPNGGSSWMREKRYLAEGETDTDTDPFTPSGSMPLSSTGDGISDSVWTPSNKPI

For the molecule `CCN(Cc1ccccc1)C(=O)c1cnc(NC2CCCC2)nc1C1(c2ccc(F)cc2)CCCC1` [Example 232, 5-pyrimidinecarboxamide, 2-(cyclopentylamino)-N-ethyl-4-[1-(4-fluorophenyl)cyclopentyl]-N-(phenylmethyl)-], the EC50 under setting [1] was 460 nM.

`O=C(NCc1cc(F)cc(C(F)(F)F)c1)c1cnc(NC2CCCC2)nc1C1(c2ccc(F)cc2)CCCC1` [Example 280, 5-pyrimidinecarboxamide, 2-(cyclopentylamino)-4-[1-(4-fluorophenyl)cyclopentyl]-N-[[3-fluoro-5-(trifluoromethyl)phenyl]methyl]-] returned an EC50 under setting [1] of 60 nM.

For the setting “hQ23 cells, thallium flux”, `CCC(C)Nc1ncc(C(=O)NC(C)c2ccc(F)cc2)c(C2(c3ccc(Cl)cc3)CCCC2)n1` (stereo not drawn) [Example 200, 5-pyrimidinecarboxamide, 4-[1-(4-chlorophenyl)cyclopentyl]-N-[1-(4-fluorophenyl)ethyl]-2-[(1-methylpropyl)amino]-] returned an EC50 of 911 nM.

In the case of `O=C(NCc1cc(F)cc(C(F)(F)F)c1)c1cnc(N2CCCC2)nc1C1(c2ccc(Cl)cc2)CCCC1` [Example 191, 5-pyrimidinecarboxamide, 4-[1-(4-chlorophenyl)cyclopentyl]-N-[[3-fluoro-5-(trifluoromethyl)phenyl]methyl]-2-(1-pyrrolidinyl)-], the EC50 (hQ23 cells, thallium flux) is 32 nM.

Where the note is “hQ23 cells, thallium flux”, `CC1CCCN(c2ncc(C(=O)NC(C)c3cccc4ccccc34)c(C3(c4ccccc4)CCCC3)n2)C1` (stereo not drawn) [Example 97, 5-pyrimidinecarboxamide, 2-(3-methyl-1-piperidinyl)-N-[1-(1-naphthalenyl)ethyl]-4-(1-phenylcyclopentyl)-] came in with an EC50 of 19 nM.

`CC1CCCN(c2ncc(C(=O)NCc3cccc4ccccc34)c(C3(c4ccccc4)CC3)n2)C1` (stereo not drawn) [Example 37, 5-pyrimidinecarboxamide, 2-(3-methyl-1-piperidinyl)-N-(1-naphthalenylmethyl)-4-(1-phenylcyclopropyl)-] yielded an EC50 under setting [2] of 214 nM.

`O=C(NCc1ccc2c(c1)OCO2)c1cnc(N2CCCC2)nc1C1(c2ccc(F)cc2)CCCC1` [Example 235, 5-pyrimidinecarboxamide, N-(1,3-benzodioxol-5-ylmethyl)-4-[1-(4-fluorophenyl)cyclopentyl]-2-(1-pyrrolidinyl)-]: the EC50 under setting [1] is 214 nM.

`CN(C)CCNc1ncc(C(=O)N2CCc3ccccc3C2)c(C2(c3ccc(Cl)cc3)CCC2)n1` [Example 54, isoquinoline, 2-[[4-[1-(4-chlorophenyl)cyclobutyl]-2-[[2-(dimethylamino)ethyl]amino]-5-pyrimidinyl]carbonyl]-1,2,3,4-tetrahydro-] gave an EC50 under setting [3] of 475 nM.

Turning to `CN1CCN(c2ncc(C(=O)NCc3cc(F)cc(C(F)(F)F)c3)c(C3(c4ccccc4)CCCC3)n2)CC1` [Example 125, 5-pyrimidinecarboxamide, N-[[3-fluoro-5-(trifluoromethyl)phenyl]methyl]-2-(4-methyl-1-piperazinyl)-4-(1-phenylcyclopentyl)-], where the note is “hQ23 cells, thallium flux”, the EC50 was found to be 375 nM.

For the setting “hQ23 cells, thallium flux”, `CC1CCCN(c2ncc(C(=O)NCc3ccc(Cl)c(Cl)c3)c(C3(c4ccc(Cl)cc4)CCCC3)n2)C1` (stereo not drawn) [Example 174, 5-pyrimidinecarboxamide, 4-[1-(4-chlorophenyl)cyclopentyl]-N-[(3,4-dichlorophenyl)methyl]-2-(3-methyl-1-piperidinyl)-] showed an EC50 of 10 nM.

As for `O=C(c1cnc(NC2CCCC2)nc1C1(c2ccc(Cl)cc2)CCCC1)N1CCc2ccccc2C1` [Example 142, isoquinoline, 2-[[4-[1-(4-chlorophenyl)cyclopentyl]-2-(cyclopentylamino)-5-pyrimidinyl]carbonyl]-1,2,3,4-tetrahydro-], the midpoint of the response (hQ23 cells, thallium flux), the EC50, lay at 535 nM.

Under setting [2], `CCN(Cc1ccccc1)C(=O)c1cnc(NC2CCC(C)CC2)nc1C1(c2ccccc2)CC1` (stereo not drawn) [Example 29, 5-pyrimidinecarboxamide, N-ethyl-2-[(4-methylcyclohexyl)amino]-4-(1-phenylcyclopropyl)-N-(phenylmethyl)-] had an EC50 of 607 nM.

Regarding `CCN(Cc1ccccc1)C(=O)c1cnc(N2CCCC(C)C2)nc1C1(c2ccccc2)CCCC1` (stereo not drawn) [Example 85, 5-pyrimidinecarboxamide, N-ethyl-2-(3-methyl-1-piperidinyl)-4-(1-phenylcyclopentyl)-N-(phenylmethyl)-], the EC50 (hQ23 cells, thallium flux) turned out to be 161 nM.

`CCN(Cc1ccccc1)C(=O)c1cnc(N2CCC(C)CC2)nc1C1(c2ccccc2)CCCC1` [Example 86, 5-pyrimidinecarboxamide, N-ethyl-2-(4-methyl-1-piperidinyl)-4-(1-phenylcyclopentyl)-N-(phenylmethyl)-] gave an EC50 (hQ23 cells, thallium flux) of 334 nM.

The molecule `CCN(C(=O)c1cnc(N2CCC(C)CC2)nc1C1(c2ccc(F)cc2)CCCC1)C1CCCCC1` [Example 215, 5-pyrimidinecarboxamide, N-cyclohexyl-N-ethyl-4-[1-(4-fluorophenyl)cyclopentyl]-2-(4-methyl-1-piperidinyl)-] gave an EC50 (hQ23 cells, thallium flux) of 922 nM.

Take `CC1CCN(c2ncc(C(=O)NC(C)c3cccc4ccccc34)c(C3(c4ccc(F)cc4)CCCC3)n2)CC1` (stereo not drawn) [Example 245, 5-pyrimidinecarboxamide, 4-[1-(4-fluorophenyl)cyclopentyl]-2-(4-methyl-1-piperidinyl)-N-[1-(1-naphthalenyl)ethyl]-]: under setting [1], a half-maximal response (EC50) required 10 nM.

`CCC(C)Nc1ncc(C(=O)N(CC)CC)c(C2(c3ccc(Cl)cc3)CCC2)n1` (stereo not drawn) [Example 52, 5-pyrimidinecarboxamide, 4-[1-(4-chlorophenyl)cyclobutyl]-N,N-diethyl-2-[(1-methylpropyl)amino]-]: the EC50 under setting [3] amounted to 211 nM.

With `CCN(C(=O)c1cnc(NC2CCCC2)nc1C1(c2ccc(F)cc2)CCCC1)C1CCCCC1` [Example 217, 5-pyrimidinecarboxamide, N-cyclohexyl-2-(cyclopentylamino)-N-ethyl-4-[1-(4-fluorophenyl)cyclopentyl]-], the EC50 (hQ23 cells, thallium flux) was determined as 482 nM.

Molecule `CC1CCC(Nc2ncc(C(=O)NC(C)c3cccc4ccccc34)c(C3(c4ccccc4)CCCC3)n2)CC1` (stereo not drawn) [Example 95, 5-pyrimidinecarboxamide, 2-[(4-methylcyclohexyl)amino]-N-[1-(1-naphthalenyl)ethyl]-4-(1-phenylcyclopentyl)-] returned an EC50 (hQ23 cells, thallium flux) of 64 nM.

For `O=C(NCc1ccc(F)cc1F)c1cnc(NC2CCCC2)nc1C1(c2ccc(F)cc2)CCCC1` [Example 273, 5-pyrimidinecarboxamide, 2-(cyclopentylamino)-N-[(2,4-difluorophenyl)methyl]-4-[1-(4-fluorophenyl)cyclopentyl]-], the EC50 under setting [1] worked out at 115 nM.

Consider `O=C(NCc1cc(F)cc(C(F)(F)F)c1)c1cnc(NC2CCCC2)nc1C1(c2ccc(Cl)cc2)CCCC1` [Example 196, 5-pyrimidinecarboxamide, 4-[1-(4-chlorophenyl)cyclopentyl]-2-(cyclopentylamino)-N-[[3-fluoro-5-(trifluoromethyl)phenyl]methyl]-], for which a half-maximal response (hQ23 cells, thallium flux) (EC50) required 91 nM.

For `CC(NC(=O)c1cnc(N2CCN(C)CC2)nc1C1(c2ccc(F)cc2)CCCC1)c1ccc(F)cc1` (stereo not drawn) [Example 283, 5-pyrimidinecarboxamide, 4-[1-(4-fluorophenyl)cyclopentyl]-N-[1-(4-fluorophenyl)ethyl]-2-(4-methyl-1-piperazinyl)-], the EC50 under setting [1] came out at 752 nM.

`CC1CCN(c2ncc(C(=O)NC(C)c3cccc4ccccc34)c(C3(c4ccccc4)CCCC3)n2)CC1` (stereo not drawn) [Example 98, 5-pyrimidinecarboxamide, 2-(4-methyl-1-piperidinyl)-N-[1-(1-naphthalenyl)ethyl]-4-(1-phenylcyclopentyl)-] displayed an EC50 (hQ23 cells, thallium flux) of 15 nM.

Consider `CCN(C)C(=O)c1cnc(N2CCC(C)CC2)nc1C1(c2ccc(F)cc2)CCCC1` [Example 227, 5-pyrimidinecarboxamide, N-ethyl-4-[1-(4-fluorophenyl)cyclopentyl]-N-methyl-2-(4-methyl-1-piperidinyl)-], for which the response (hQ23 cells, thallium flux) was half-maximal at 882 nM (EC50).

As for `CC(NC(=O)c1cnc(NC2CC2)nc1C1(c2ccc(Cl)cc2)CCCC1)c1cccc2ccccc12` (stereo not drawn) [Example 157, 5-pyrimidinecarboxamide, 4-[1-(4-chlorophenyl)cyclopentyl]-2-(cyclopropylamino)-N-[1-(1-naphthalenyl)ethyl]-], under “hQ23 cells, thallium flux”, the EC50 worked out at 195 nM.

In turn, `CC1CCCN(c2ncc(C(=O)NCc3ccc(Cl)cc3Cl)c(C3(c4ccccc4)CCCC3)n2)C1` (stereo not drawn) [Example 112, 5-pyrimidinecarboxamide, N-[(2,4-dichlorophenyl)methyl]-2-(3-methyl-1-piperidinyl)-4-(1-phenylcyclopentyl)-] returned an EC50 (hQ23 cells, thallium flux) of 64 nM.

Turning to `CC1CCCN(c2ncc(C(=O)NC(C)c3ccc(F)cc3)c(C3(c4ccc(Cl)cc4)CCC3)n2)C1` (stereo not drawn) [Example 68, 5-pyrimidinecarboxamide, 4-[1-(4-chlorophenyl)cyclobutyl]-N-[1-(4-fluorophenyl)ethyl]-2-(3-methyl-1-piperidinyl)-], under setting [3], the EC50 amounted to 128 nM.

As for `CC1CCN(c2ncc(C(=O)N(C)CCc3ccccc3)c(C3(c4ccc(F)cc4)CCCC3)n2)CC1` [Example 222, 5-pyrimidinecarboxamide, 4-[1-(4-fluorophenyl)cyclopentyl]-N-methyl-2-(4-methyl-1-piperidinyl)-N-(2-phenylethyl)-], it took 273 nM to reach a half-maximal effect (hQ23 cells, thallium flux) (EC50).

Under “hQ23 cells, thallium flux”, `CCC(C)Nc1ncc(C(=O)N(CC)Cc2ccccc2)c(C2(c3ccc(F)cc3)CCCC2)n1` (stereo not drawn) [Example 231, 5-pyrimidinecarboxamide, N-ethyl-4-[1-(4-fluorophenyl)cyclopentyl]-2-[(1-methylpropyl)amino]-N-(phenylmethyl)-] showed an EC50 of 786 nM.

With `CCC(C)Nc1ncc(C(=O)NC(C)c2cccc3ccccc23)c(C2(c3ccc(F)cc3)CCCC2)n1` (stereo not drawn) [Example 246, 5-pyrimidinecarboxamide, 4-[1-(4-fluorophenyl)cyclopentyl]-2-[(1-methylpropyl)amino]-N-[1-(1-naphthalenyl)ethyl]-], under setting [1], the EC50 was determined as 177 nM.
